Data reported in patent US20250305931A1, “METHOD FOR ANALYZING A URINE SAMPLE, AND A REAGENT FOR ANALYZING A URINE SAMPLE” (SYSMEX CORPORATION, priority 2024, published 2025).

Key:
[1] = tested on: purified yeast fungus (C. glabrata); test: Staining of yeast-like fungi in spiked negative urine, flow cytometer UF-5000 SF channel, average fluorescence intensity of the yeast cluster; format: cell-based; conditions: for average value of the fluorescence intensity compared with 2-phenoxyethanol used alone: Example 2, compound mixed with 2-phenoxyethanol; for average value of the fluorescence intensity compared with when other compounds are used: concentrations of Table 2
Experimental: Each of the following substances was dissolved in purified water to prepare a buffer solution.
When the compound shown in the following table was not dissolved, the compound was used after filtration. […] Furthermore, a first reagent having the same composition as Diluting Liquid of EXAMPLE-1 of U.S. Patent Publication No. 2006/0073601 was prepared. The first reagent is represented by [2-phenoxyethanol(*)] in the following table. In the following table, the compound of the present embodiment is shown in bold.
UF-fluorocell SF for UF-5000 (Sysmex Corporation) was used. Such reagents include polymethine-based dyes and stain lipid bilayer membranes and porous protein aggregates of cells, and the like.
A purified yeast fungus (C. glabrata) was added to negative urine to a concentration of about 1800 cells/μL. In order to confirm the effect on red blood cells, human blood was added to negative urine so that the concentration of red blood cells was about 400 cells/μL. As the negative urine, a commercially available Normal Human Urine (Golden West Diagnostics, LLC) was filtered through a 0.22-μm membrane filter, and a urine specimen having a negative result in a sediment assay was used.
A measurement sample was prepared by mixing a first reagent and a second reagent with a urine sample, and measurement was performed using an SF channel of a flow cytometer UF-5000 (Sysmex Corporation), and a scattergram was prepared in which a forward scattered light intensity was taken on the vertical axis and a fluorescence intensity was taken on the horizontal axis. In measurement using the SF channel, red blood cells, crystals, a glass cylinder, a cylinder containing contents, and the like are measured. To calculate the average value of the fluorescence intensity of yeast fungi, an arbitrary region Y for each measurement was set, and the average value of the fluorescence intensity of a population of dots appearing in the region was calculated. Note that the value of the fluorescence intensity is a relative value when the minimum value of the horizontal axis in the scattergram is 0 and the maximum value is 255.
SF. Specifically, after mixing 362.5 μL of the first reagent, 125 μL of the urine specimen, and 12.5 μL of the second reagent, the measurement sample was prepared by stirring at about 39° C. for 9 seconds, and then flowed into the flow cell of the detection section. Information on scattered light and fluorescence emitted from particles in the measurement sample that received the laser beam was acquired by the detection unit. A scattergram was generated based on the obtained optical information.

[2] = tested on: yeast-like fungi; test: Clinical urine specimens, staining of yeast-like fungi on the scattergram; format: cell-based; conditions: Example 4, chlorphenesin 3 g/L, or 1,2-octanediol 2 g/L with 2-phenoxyethanol 6 g/L, control UF-CELLPACK SF
Experimental: The following specimens were used as the specimen. • (1) Clinical specimen 1: a specimen in which yeast-like fungi and red blood cells are detected in a microscopy • (2) Clinical specimen 2 to 4: a specimen in which yeast-like fungi have been detected by microscopy • (3) Clinical specimen 5 to 10: a specimen in which red blood cells are detected in a microscopy
A urine sample was measured in the same manner as in Example 1, except that the first reagent was prepared by adding 3 g/L chlorphenesin or 6 g/L 2-phenoxyethanol and 2 g/L 1,2-octanediol to the buffer solution described in Example 1. In addition, a urine sample was measured in the same manner as in Example 1 using UF-CELLPACK SF (manufactured by Sysmex) as a first reagent as a control. UF-CELLPACK SF (manufactured by Sysmex) contained 6 g/L of 2-phenoxyethanol. In the following table, the compound of the present embodiment is shown in bold.

[3] = Example 1, 10 g/L in first reagent, final 7.3 g/L, filtered if not dissolved, relative scale 0-255

OCCCCC(O)CO (stereo not drawn) [1,2,6-HEXANETRIOL, reference compound]
AVERAGE VALUE OF FLUORESCENT SIGNAL INTENSITY [1, 3]: 80.5

CCCCCCCCC(O)CO (stereo not drawn) [1,2-DECANEDIOL, 1,2-decanediol]
AVERAGE VALUE OF FLUORESCENT SIGNAL INTENSITY ([1]; Example 1, 1 g/L in first reagent, final 0.7 g/L, relative scale 0-255): 252.7

CCCCCCCCCCC(O)CO (stereo not drawn) [1,2-DODECANEDIOL, reference compound]
AVERAGE VALUE OF FLUORESCENT SIGNAL INTENSITY ([1]; Example 1, 0.5 g/L in first reagent, final 0.4 g/L, relative scale 0-255): 107.6

CCCCC(O)CO (stereo not drawn) [1,2-HEXANEDIOL, reference compound]
AVERAGE VALUE OF FLUORESCENT SIGNAL INTENSITY [1, 3]: 107.7

CCCCCCC(O)CO (stereo not drawn) [1,2-OCTANEDIOL, 1,2-octanediol]
staining of yeast-like fungi ([2]; clinical specimen 1 (yeast-like fungi and red blood cells)): more strongly stained
staining of yeast-like fungi ([2]; clinical specimens 2 to 4 rich in yeast-like fungi): more strongly stained
AVERAGE VALUE OF FLUORESCENT SIGNAL INTENSITY ([1]; Example 1, 6 g/L in first reagent, final 4.4 g/L, relative scale 0-255): 253.4
average value of the fluorescence intensity compared with 2-phenoxyethanol used alone [1]: significantly larger
AVERAGE VALUE OF FLUORESCENT SIGNAL INTENSITY ([1]; Example 3, 3 g/L in first reagent, final 2.2 g/L): 222.1
AVERAGE VALUE OF FLUORESCENT SIGNAL INTENSITY ([1]; Example 3, 4 g/L in first reagent, final 2.9 g/L): 245.3
AVERAGE VALUE OF FLUORESCENT SIGNAL INTENSITY ([1]; Example 3, 5 g/L in first reagent, final 3.6 g/L): 251.0
AVERAGE VALUE OF FLUORESCENT SIGNAL INTENSITY ([1]; Example 3, 6 g/L in first reagent, final 4.4 g/L): 252.1

OCCCCCCCCO [1,8-OCTANEDIOL, reference compound]
AVERAGE VALUE OF FLUORESCENT SIGNAL INTENSITY [1, 3]: 120.5

COc1cccc(OCC(C)O)c1 (stereo not drawn) [1-(3-METHOXYPHENOXY)-2-PROPANOL, 1-(3-methoxyphenoxy)-2-propanol]
AVERAGE VALUE OF FLUORESCENT SIGNAL INTENSITY ([1]; Example 1, 9 g/L in first reagent, final 6.5 g/L, relative scale 0-255): 246.8
average value of the fluorescence intensity compared with when other compounds are used ([1]; Example 1): significantly larger

CCCCCCCCC(C)O (stereo not drawn) [2-DECANOL, reference compound]
AVERAGE VALUE OF FLUORESCENT SIGNAL INTENSITY [1, 3]: 106.0

CCCCCC(C)O (stereo not drawn) [2-HEPTANOL, 2-heptanol]
AVERAGE VALUE OF FLUORESCENT SIGNAL INTENSITY [1, 3]: 250.1
average value of the fluorescence intensity compared with 2-phenoxyethanol used alone [1]: significantly larger

CCCCCCC(C)O (stereo not drawn) [2-OCTANOL, 2-octanol]
AVERAGE VALUE OF FLUORESCENT SIGNAL INTENSITY [1, 3]: 240.6

OCCOc1ccccc1 [2-PHENOXYETHANOL, 2-phenoxyethanol, reference compound]
AVERAGE VALUE OF FLUORESCENT SIGNAL INTENSITY ([1]; Example 1, 7.5 g/L in first reagent, final 5.4 g/L, relative scale 0-255): 196.9

OCCCOc1ccccc1 [3-PHENOXY-1-PROPANOL, 3-phenoxy-1-propanol]
AVERAGE VALUE OF FLUORESCENT SIGNAL INTENSITY ([1]; Example 1, 7 g/L in first reagent, final 5.1 g/L, relative scale 0-255): 253.6
average value of the fluorescence intensity compared with when other compounds are used ([1]; Example 1): significantly larger
average value of the fluorescence intensity compared with 2-phenoxyethanol used alone [1]: significantly larger

COC(=O)c1ccc(O)cc1 [METHYLPARABEN, reference compound]
AVERAGE VALUE OF FLUORESCENT SIGNAL INTENSITY ([1]; Example 1, 1.9 g/L in first reagent, final 1.4 g/L, relative scale 0-255): 220.5

Oc1ccccc1-c1ccccc1 [ORTHOPHENYLPHENOL, orthophenylphenol]
AVERAGE VALUE OF FLUORESCENT SIGNAL INTENSITY ([1]; Example 1, 3 g/L in first reagent, final 2.2 g/L, relative scale 0-255): 250.1
average value of the fluorescence intensity compared with when other compounds are used ([1]; Example 1): significantly larger

OCCOCCOc1ccccc1 [PHENYL DIGLYCOL, reference compound]
AVERAGE VALUE OF FLUORESCENT SIGNAL INTENSITY [1, 3]: 165.0
